Earlier results on two molecules are cited in patent publication US12685733B2, “Indole molecules and use thereof in the inhibition of DNA polymerases” (BioVentures, LLC, priority 2019, dated 2026).

Each structure is given as a SMILES string.

For the series, the target named is T1, recombinant hpol κ (Homo sapiens, UniProt Q9UBT6).
T1 sequence (Q9UBT6 1-870): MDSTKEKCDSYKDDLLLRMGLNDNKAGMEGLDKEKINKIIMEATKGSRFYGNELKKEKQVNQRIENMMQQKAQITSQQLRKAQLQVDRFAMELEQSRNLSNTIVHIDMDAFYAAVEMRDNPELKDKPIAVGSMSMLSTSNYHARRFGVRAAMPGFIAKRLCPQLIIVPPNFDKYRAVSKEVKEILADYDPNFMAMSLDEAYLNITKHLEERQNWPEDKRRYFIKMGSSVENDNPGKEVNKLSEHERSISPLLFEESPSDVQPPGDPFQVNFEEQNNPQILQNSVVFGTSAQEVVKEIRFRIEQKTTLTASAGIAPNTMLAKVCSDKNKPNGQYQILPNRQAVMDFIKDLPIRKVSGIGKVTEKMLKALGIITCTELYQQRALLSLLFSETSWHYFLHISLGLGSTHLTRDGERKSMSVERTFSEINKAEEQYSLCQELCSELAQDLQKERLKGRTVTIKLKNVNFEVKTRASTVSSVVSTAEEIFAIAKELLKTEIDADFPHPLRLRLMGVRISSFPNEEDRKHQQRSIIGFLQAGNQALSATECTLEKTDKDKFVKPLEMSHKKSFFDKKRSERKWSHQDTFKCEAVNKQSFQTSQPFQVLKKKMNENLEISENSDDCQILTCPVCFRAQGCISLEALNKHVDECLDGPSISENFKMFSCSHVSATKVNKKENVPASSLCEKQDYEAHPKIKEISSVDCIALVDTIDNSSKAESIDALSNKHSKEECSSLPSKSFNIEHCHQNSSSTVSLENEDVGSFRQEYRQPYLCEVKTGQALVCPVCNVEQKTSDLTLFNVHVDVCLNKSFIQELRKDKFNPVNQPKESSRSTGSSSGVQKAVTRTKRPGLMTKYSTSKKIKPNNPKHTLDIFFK
The note with it: earlier screen; cited from earlier work.

As to `CC(C)c1ccc2c(c1)c(SC(C)(C)C)c(CC(C)(C)C(=O)O)n2Cc1ccc(Cl)cc1` [MK-886], the “IC50 for inhibition of recombinant hpol κ” value is given as “tens of micromolar”.

With `CCOc1nc2cccc(C(=O)OC(C)OC(=O)OC3CCCCC3)c2n1Cc1ccc(-c2ccccc2-c2nn[nH]n2)cc1` (centres unmarked) [candesartan, candesartan cilexetil], the “IC50 for inhibition of recombinant hpol κ” value was “tens of micromolar”.
